In article PMC12933331, “A Cryptic Pocket Allosterically Modulates Oligosaccharide Binding to DC-SIGN” (JACS Au, 2026):
Numbering of substitutions follows the chain as printed.

How the values were obtained:
Format in all cases: binding
DC-SIGN CRD E358A = target: T1, DC-SIGN CRD E358A (Homo sapiens, UniProt Q9NNX6, E358A); assay: 1H-15N HSQC NMR titration (CSP fitting)
T1 construct: acids 253-404 of DC-SIGN; His-tag (N); made in house
T1 sequence (Q9NNX6 253-404 E358A): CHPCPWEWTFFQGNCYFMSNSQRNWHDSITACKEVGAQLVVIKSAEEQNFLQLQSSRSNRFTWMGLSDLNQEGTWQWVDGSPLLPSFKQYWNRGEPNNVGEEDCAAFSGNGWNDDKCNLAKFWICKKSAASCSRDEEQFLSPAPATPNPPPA
Description: 1H-15N HSQC NMR. 1H-15N HSQC NMR spectra were collected with 256 increments in the nitrogen and 24 scans per increment and 2048 points in the direct dimension. The relaxation delay d1 was set to 1.0 s. The W5 WATERGATE pulse sequence was used for solvent suppression.3, 4 Experiments were performed at a CRD concentration of 200 μM in 20 mM MES, 40 mM NaCl, 10 mM CaCl2 (pH 6.0) supplemented with 10% D 2O and, if applicable, varying concentrations of ligands. Samples of apo DC -SIGN CRD were prepared as described for 1H-13C HSQC NMR experiments. A previously published resonance assignment of DC-SIGN CRD was transferred to the nearest neighbor in a reference spectrum recorded without ligand.5 Unassigned, overlapping or disappearing peaks were not assigned.
CSPs induced by mutations or ligands were calculated as previously described according to […]
The empirical weighing factor a was set to 0.15 for all calculations.
Dissociation constants (K Ds) were determined in titration experiments at five ligand concentratio ns […]
in the fast exchange regime were used for the fitting procedure via equation 4 in a global two - […]
with CSP max corresponding to the CSP values upon saturation and the bound protein fraction p b […]
CHESPA was performed as previously described .7 The chemical shift vector between apo and holo wildtype DC -SIGN CRD was used as reference perturbation to calculate the vector product to […]

DC-SIGN ECD M270F = target: T2, DC-SIGN ECD M270F (Homo sapiens, UniProt Q9NNX6, M270F); assay: Plate-based horseradish peroxidase assay; conditions: 1 µg mL-1 HRP, 25 mM CaCl2
T2 construct: acids 64 -404 of DC -SIGN; made in house
T2 sequence (Q9NNX6 64-404 M270F): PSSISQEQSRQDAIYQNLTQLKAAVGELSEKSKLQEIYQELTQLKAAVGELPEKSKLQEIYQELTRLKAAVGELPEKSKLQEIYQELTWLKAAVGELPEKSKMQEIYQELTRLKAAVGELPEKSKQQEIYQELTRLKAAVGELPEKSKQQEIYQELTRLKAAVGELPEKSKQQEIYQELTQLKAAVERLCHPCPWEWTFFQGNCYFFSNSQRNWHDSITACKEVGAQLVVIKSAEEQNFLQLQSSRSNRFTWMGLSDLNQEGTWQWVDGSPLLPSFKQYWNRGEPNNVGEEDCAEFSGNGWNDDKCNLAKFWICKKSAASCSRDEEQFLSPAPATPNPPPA
Description: (§1) chromatography. Purified protein was dialyzed against 25 mM HEPES, 150 mM NaCl, 10 mM CaCl2, pH 7.4, concentrated using a centrifugal spin filter, snap frozen and then stored at -80°C. […]
(§2) Plate-based horseradish peroxidase assay
(§3) General remarks. Unless stated otherwise, all reagents and buffers were obtained from Sigma Aldrich or Carl Roth. Measurements were done on a Enspire Multimode Plate Reader (PerkinElmer). GraphPad Prism was used for all data processing and analysis.
(§4) CaCl2 titration. 100 µg mL-1 DC-SIGN ECD were immobilized in immobilization buffer (25 mM HEPES, 150 mM NaCl, 25 mM CaCl 2, pH 7.4) overnight at 4°C on transparent Nunc Maxisorp 96-well plates (Thermo Fisher). Protein solution was removed, and plates were washed three times with immobilization buffer and then blocked for 2 hours at 4°C with blocking buffer (25 mM HEPES, 150 mM NaCl, 25 mM CaCl 2, 2% BSA, 0.01% Tween -20). Plates were washed twice with 25 mM HEPES, 150 mM NaCl, 5 mM EDTA, pH 7.4 and twice with 25 mM HEPES, 150 mM NaCl, pH 7.4 to remove residual Ca 2+. To titrate Ca2+, CaCl2 in 25 mM HEPES, 150 mM NaCl, pH 7.4 was serially diluted on the plate at a constant HRP concentration of 1 µg mL-1 and then incubated at RT for 2 hours. Following incubation, plates were washed three times with 25 mM HEPES, 150 mM NaCl, pH 7.4 and bound HRP was detected using a TMB substrate kit (Thermo Fisher) and 0.18 M H2SO4 according to manufacturer’s instructions. Absorption was […]
(§5) HRP titration. Immobilization and blocking were done as described above. After blocking, plates were washed three times with immobilization buffer. HRP in immobilization buffer was serially diluted on the plate at a constant concentration CaCl2 concentration of 25 mM and then incubated […]
(§6) at RT for 2 hours. Following incubation, plates were washed three times with immobilization buffer and HRP was detected as described above.
(§7) Immobilization and blocking were done as described above. After blocking, plates were washed three times with immobilization buffer. Mannose in immobilization buffer containing 1 µg mL-1 HRP was serially diluted on the plate and then incubated at RT for 2 hours.
(§8) Following incubation, plates were washed three times with immobilization buffer and HRP was detected as described above.
(§9) All conditions were measured in technical triplicates, averaged and normalized to the control well […]
(§10) IC50 and EC50 values and hill […]
(§11) slopes (nH) were obtained in a four-parameter fit according to equation (1).
(§12) Y = bottom + top − bottom (1)
(§13) With bottom and top representing the minimal and maximal response plateaus, respectively, Y as the observed response and X the logarithmic concentration of the ligand . […]
(§14) Biosynth. Spectra were processed in TopSpin 4.2.0 and data analysis was performed using CCPN Analysis 3.2.0 for 2D spectra and in MestreNova for 1D spectra.2 Further analysis was done using GraphPad Prism and in-house python scripts.

DC-SIGN ECD wildtype = target: T3, DC-SIGN ECD wildtype (Homo sapiens, UniProt Q9NNX6); assay: Plate-based horseradish peroxidase assay; conditions: 1 µg mL-1 HRP, 25 mM CaCl2
T3 construct: acids 64 -404 of DC -SIGN; made in house
T3 sequence (Q9NNX6 64-404): T2 sequence (Q9NNX6 64-404 M270F) with F207M
Description: as §1, §2, §3, §4, §5, §6, §7, §8, §9, §10, §11, §12, §13, §14

[1] = read-out: IC50, inhibition of HRP binding

SMILES: OC[C@H]1OC(O)[C@@H](O)[C@@H](O)[C@@H]1O (some centres unmarked) [mannose]
- Kd (DC-SIGN CRD E358A): 51.1 ± 4.9 mM
- hill slope, inhibition of HRP binding (DC-SIGN ECD M270F): -1.5
- IC50 (DC-SIGN ECD M270F; [1]): 3.1 mM
- hill slope, inhibition of HRP binding (DC-SIGN ECD wildtype): -1.8
- IC50 (DC-SIGN ECD wildtype; [1]): 2.3 mM
